The values that follow come from patent US5747239A, “Synthetic peptides specific for the detection of antibodies to HCV, diagnosis of HCV infection and preventions thereof as vaccines” (United Biomedical, Inc., priority 1994, dated 1998).

Assay [1] concerns antibodies to HCV. The experiment in a line: NS-1 peptide ELISA, Panel II (asymptomatic individuals, mainland China and Taiwan). In kind it is binding, human. To be noted: for % IP: NS-1 peptides, Panel II (CH1-CH7), relative to pep1 (231C). As to the method: Wells of 96-well plates were coated for 1 hour at 37° C. with each of the 16 peptides (designated as peptides 241A-C, 231A-E, 232A-D, 233C, 234A-C), synthesized according to sequences derived from the NS-1 region (Table 3A), at 5 ug/mL at 100 uL per well in 10 mM NaHCO3 buffer, pH 9.5. Each peptide's immunoreactivity was measured as previously described (see Example 1), using an 8 member serum panel (Panel I).
A panel of serum samples from individuals coming from regions in which hepatitis C is endemic, namely mainland China and Taiwan, were tested for evidence of reactivity to these NS-1 protein derived peptides. Twenty-four samples were chosen from individuals who had no recognizable symptoms of non-A, non-B hepatitis and for whom the peptide based HCV EIA, Format C, as described in Example 11, was nonreactive. Seven of the 24 samples (29%) were reactive against one or more peptides from the NS-1 region, indicative of the presence of long term protective antibodies responsive to this region. This 7 member panel (designated as Panel II, CH1-CH7) was used to further characterize these NS-1 peptides for their immunoreactivity.
The peptide with the greatest reactivity against the serum Panel II again was pep1 (designated 231c in Table 3A). Using this peptide as a standard, the relative immunoreactivity for each of the other 15 peptides from the NS-1 region are calculated in Table 3A.

The subject of assay [2] is antibodies to HCV. The experiment in a line: NS-1 peptide ELISA, early and late HCV infection panels. It is filed as binding, human. As to the method: In addition, all sixteen NS-1 peptides were tested on panels of samples representing HCV-antibody positive donors (n=9) in an early stage of infection, namely plasmapheresis donors with the first occurrence of an ALT level >100 i.u./L, and those asymptomatic individuals (n=14) disqualified from blood donation because of a reactive result for anti-HIV or HBc, for whom the anti-HCV result probably represents a past infection.
These select panels were chosen from hundreds of HCV positive sera for their ability to recognize NS-1 antigens. For both groups, peptide designated as 232A (pep2) had the greatest immunoreactivity. Using pep2 as a standard, the relative immunoreactivity of each peptide was calculated (Table 3C).

Setting [3] is: Early HCV Infection panel, n = 9.
The mark [4] stands for this setting: Late HCV Infection panel, n = 14.

For “ANGSGPDQRPYCWHYPPKPCGIVPAKSVCGPVYC [231B]”, the “% IP” value in the assay on antibodies to HCV [1] came out at 96.4%. Moreover, the “% Relative Immunoreactivity in comparison to Pep2 (232A)” value (from here on “% Relative Immunoreactivity”) in the assay on antibodies to HCV [2] (setting [3]) is on record as 30.9%; in the assay on antibodies to HCV [2] (setting [4]), 46.7%.
In the same order, the values of “CPERLASCRPLTDFDQGWGPISYANGSGPDQRPYCWHYPPKPCGIVPAKSVC [241C]” are 93.6%, 44.7% and 84.7%.
As for “CPERLASCRPLTDFDQGWGPISYANGSGPDQRPYCWHYPPKPCGIVPAKSVCGPVYC [231E]”, in the assay on antibodies to HCV [1], the “% IP” value is 87.6%. In addition, the “% Relative Immunoreactivity” value in the assay with antibodies to HCV [2] (setting [3]) was found to be 70.9%; with antibodies to HCV [2] (setting [4]) it was 83.4%.
For “CRPLTDFDQGWGPISYANGSGPDQRPYCWHYPPKPCGIVPAKSVC [241B]”, in that order: 92.9%, 32.7% and 75.0%.
Turning to “CRPLTDFDQGWGPISYANGSGPDQRPYCWHYPPKPCGIVPAKSVCGPVYC [231D]”, the “% IP” value with antibodies to HCV [1] was 65.3%. Moreover, the entries for the “% Relative Immunoreactivity” value in the assay on antibodies to HCV [2] (setting [3]) and in the assay with antibodies to HCV [2] (setting [4]) were 23.3% and 43.5%, respectively.
Consider EAACNWTRGERCDLEDRDRSELS [234A], for which the “% IP” value in the assay on antibodies to HCV [1] was determined as 20.5%. Further, the “A492 nm by EIA (mA)” value is on record as 118 mA in the assay on antibodies to HCV [1] (Panel II sample CH-1); 232 mA in the assay on antibodies to HCV [1] (Panel II sample CH-2); 64 mA in the assay on antibodies to HCV [1] (Panel II sample CH-3); 227 mA in the assay with antibodies to HCV [1] (Panel II sample CH-4); 206 mA with antibodies to HCV [1] (Panel II sample CH-5); 202 mA with antibodies to HCV [1] (Panel II sample CH-6). In the assay on antibodies to HCV [1] (Panel II sample CH-7), the “A492 nm by EIA (mA)” value turned out to be 151 mA. Also, the “% Relative Immunoreactivity” value in the assay on antibodies to HCV [2] (setting [3]) is given as 9.5%; in the assay on antibodies to HCV [2] (setting [4]), 15.7%.
As to “LHCPTDCFRKHPDATYSRCGSGPWITPRCLVDYPYRLWHWPC [233C]”, the “% IP” value in the assay with antibodies to HCV [1] amounted to 16.8%. For the same sequence, the “A492 nm by EIA (mA)” value in the assay with antibodies to HCV [1] (Panel II sample CH-1) stood at 123 mA; with antibodies to HCV [1] (Panel II sample CH-2), 174 mA; in the assay with antibodies to HCV [1] (Panel II sample CH-3) it was 72 mA; in the assay on antibodies to HCV [1] (Panel II sample CH-4) it was 238 mA; with antibodies to HCV [1] (Panel II sample CH-5), 114 mA; with antibodies to HCV [1] (Panel II sample CH-6), 175 mA. The “A492 nm by EIA (mA)” value with antibodies to HCV [1] (Panel II sample CH-7) turned out to be 89 mA. In addition, the “% Relative Immunoreactivity” value in the assay on antibodies to HCV [2] (setting [3]) was 9.9%; in the assay on antibodies to HCV [2] (setting [4]), 17.5%.
Consider “QGWGPISYANGSGPDQRPYCWHYPPKPCGIVPAKSVC [241A]”, for which the “% IP” value in the assay with antibodies to HCV [1] came out at 63.9%. In addition, the “% Relative Immunoreactivity” value in the assay on antibodies to HCV [2] (setting [3]) amounted to 23.9%; in the assay on antibodies to HCV [2] (setting [4]), 43.8%.
For RPYCWHYPPKPCGIVPAKSVCGPVYC [231A], in that order: 83.2%, 46.8% and 48.4%.
In the same order, the values of “SWGENDTDVFVLNNTRPPLGNWFGCTWMNSTGFTKVCGAPPC [232C]” are 27.9%, 21.7% and 22.0%.
In the same order, the values of “TIFKIRMYVGGVEHRLEAACNWTRGERCDLEDRDRSELS [234C]” are 8.8%, 12.1% and 44.5%.
For “VFVLNNTRPPLGNWFGCTWMNSTGFTKVCGAPPC [232B]”, the “% IP” value with antibodies to HCV [1] amounted to 82.9%. Also, the “% Relative Immunoreactivity” value in the assay on antibodies to HCV [2] (setting [3]) is listed as 91.4%; in the assay with antibodies to HCV [2] (setting [4]), 83.5%.
Take VGGVEHRLEAACNWTRGERCDLEDRDRSELS [234B]: the “% IP” value with antibodies to HCV [1] is 17.9%. Further, the figures for the “% Relative Immunoreactivity” value in the assay with antibodies to HCV [2] (setting [3]) and in the assay on antibodies to HCV [2] (setting [4]) were 13.2% and 20.9%, respectively.
